Key:
YybT = assay: Drug metabolism assessed as recombinant Bacillus subtilis YybT-mediated compound hydrolysis by measuring half life at 100 uM by reversed-phase HPLC method; type: ADME; conditions: recombinant Bacillus subtilis YybT enzyme
[1] = Binding affinity to Bacillus substilis 5'-32p-labelled 165 nucleotide RNA assessed as reduction in RNA cleavage measured within 40 hrs by PAGE analysis; set-up: species or system Bacillus subtilis; conditions: read-out: Kd(app)
[2] = Drug metabolism assessed as recombinant Bacillus subtilis YybT-mediated ((2R,3S,4R,5R)-5-(6-amino-9H-purin-9-yl)-3-((((2R,3S,4R,5R)-5-(6-amino-9H-purin-9-yl)-3,4-dihydroxytetrahydrothiophen-2-yl)methoxy)(hydroxy)phosphoryloxy)-4-hydroxytetrahydrothiophen-2-yl)methyl dihydrogen phosphate formation at 100 uM by LRMS analysis; type: ADME
[3] = Drug metabolism assessed as recombinant Bacillus subtilis YybT-mediated compound degradation by measuring retention time at 100 uM by reversed-phase HPLC analysis; type: ADME
[4] = Drug level treated with c-di-4'-thioAMP assessed as recombinant Bacillus subtilis YybT-mediated metabolite formation at 100 uM by LRMS analysis; type: ADME

Row | Structure (SMILES) | half-life at 100 µM (YybT) | Kd [1] | Drug metabolism [2] | Retention_time [3] | Drug metabolism [4]
1 | Nc1ncnc2c1ncn2[C@@H]1S[C@@H]2COP(=O)(O)O[C@H]3[C@@H](O)[C@H](n4cnc5c(N)ncnc54)S[C@@H]3COP(=O)(O)O[C@H]2[C@H]1O | > 12 h | 34.8 µM | Metabolite_Detected | 12.3 min | –
2 | Nc1ncnc2c1ncn2[C@@H]1O[C@@H]2CO[P@@](=O)(O)O[C@H]3[C@@H](O)[C@H](n4cnc5c(N)ncnc54)O[C@@H]3CO[P@@](=O)(O)O[C@H]2[C@H]1O | 1 h | ≤ 0.0033 µM | – | – | –
3 | Nc1ncnc2c1ncn2[C@@H]1S[C@H](COP(=O)(O)O[C@H]2[C@@H](O)[C@H](n3cnc4c(N)ncnc43)S[C@@H]2COP(=O)(O)O)[C@@H](O)[C@H]1O | – | – | – | – | Metabolite_Detected

— ChEMBL document CHEMBL4052648, “Synthesis and evaluation of c-di-4'-thioAMP as an artificial ligand for c-di-AMP riboswitch” (Bioorg Med Chem, 2017)
